Key:
KCHSC = experiment: Example IV postemergence foliar-applied, greenhouse, cereal crops weeds; assay type: in vivo, Kochia scoparia (L.) Schrad.
Procedure: (§1) Seeds of the desired test plant species were planted in Sun Gro MetroMix® 306 planting mixture, which typically has a pH of 6.0 to 6.8 and an organic matter content of about 30 percent, in plastic pots with a surface area of 103.2 square centimeters (cm^2). […] The plants were grown for 7-36 days in a greenhouse with an approximate 14 hour photoperiod which was maintained at about 18° C. during the day and about 17° C. during the night. Nutrients and water were added on a regular basis and supplemental lighting was provided with overhead metal halide 1000-Watt lamps as necessary. The plants were employed for testing when they reached the second or third true leaf stage.
(§2) Treatments consisted of the benzyl ester of 4-amino-3-chloro-5-fluoro-6-(4-chloro-2-fluoro-3-methoxy-phenyl)pyridine-2-carboxylic acid (Compound A), formulated as an SC, a second cereal herbicide alone and then both in combination.
(§3) Other herbicidal components were applied on an active ingredient basis and included acetyl-CoA carboxylase (ACCase)-inhibiting herbicides clodinafop-propargyl, fenoxaprop-P-ethyl, pinoxaden and tralkoxydim.
(§4) Measured aliquots of benzyl ester of 4-amino-3-chloro-5-fluoro-6-(4-chloro-2-fluoro-3-methoxy-phenyl)pyridine-2-carboxylic acid (Compound A) were placed in 25 milliliter (mL) glass vials and diluted in a volume of 1.25% (v/v) Agri-Dex® crop oil concentrate to obtain stock solutions. Compound requirements are based upon a 12 mL application volume at a rate of 187 liters per hectare (L/ha). […] Formulated compounds were applied to the plant material with an overhead Mandel track sprayer equipped with an 8002E nozzle calibrated to deliver 187 L/ha over an application area of 0.503 square meters (m^2) at a spray height of 18 inches (46 cm) above average plant canopy. Control plants were sprayed in the same manner with the solvent blank.
(§5) The treated plants and control plants were placed in a greenhouse as described above and watered by sub-irrigation to prevent wash-off of the test compounds. After 20-22 days, the condition of the test plants as compared with that of the control plants was determined visually and scored on a scale of 0 to 100 percent where 0 corresponds to no injury and 100 corresponds to complete kill.
(§6) Colby's equation was used to determine the herbicidal effects expected from the mixtures (Colby, S. R. 1967. Calculation of the synergistic and antagonistic response of herbicide combinations. Weeds 15:20-22.).
(§7) The following equation was used to calculate the expected activity of mixtures containing two active ingredients, A and B: Expected=A+B−(A×B/100)

LOLMU = experiment: as above; assay type: in vivo, Lolium multiflorum Lam.
Procedure: (§8) Seeds of the desired test plant species were planted in Sun Gro MetroMix® 306 planting mixture, which typically has a pH of 6.0 to 6.8 and an organic matter content of about 30 percent, in plastic pots with a surface area of 103.2 square centimeters (cm^2). When required to ensure good germination and healthy plants, a fungicide treatment and/or other chemical or physical treatment was applied. The plants were grown for 7-36 days in a greenhouse with an approximate 14 hour photoperiod which was maintained at about 18° C. during the day and about 17° C. during the night. Nutrients and water were added on a regular basis and supplemental lighting was provided with overhead metal halide 1000-Watt lamps as necessary. The plants were employed for testing when they reached the second or third true leaf stage.
as §2, §3
(§9) Measured aliquots of benzyl ester of 4-amino-3-chloro-5-fluoro-6-(4-chloro-2-fluoro-3-methoxy-phenyl)pyridine-2-carboxylic acid (Compound A) were placed in 25 milliliter (mL) glass vials and diluted in a volume of 1.25% (v/v) Agri-Dex® crop oil concentrate to obtain stock solutions. Compound requirements are based upon a 12 mL application volume at a rate of 187 liters per hectare (L/ha). Spray solutions of the second cereal herbicide and experimental compound mixtures were prepared by adding the stock solutions to the appropriate amount of dilution solution to form 12 mL spray solution with active ingredients in two- and three-way combinations. Formulated compounds were applied to the plant material with an overhead Mandel track sprayer equipped with an 8002E nozzle calibrated to deliver 187 L/ha over an application area of 0.503 square meters (m^2) at a spray height of 18 inches (46 cm) above average plant canopy. Control plants were sprayed in the same manner with the solvent blank.
as §5, §6, §7

AVEFA = experiment: as above; assay type: in vivo, Avena fatua L.
Procedure: as §8, §2, §3, §9
(§10) The treated plants and control plants were placed in a greenhouse as described above and watered by sub-irrigation to prevent wash-off of the test compounds. After 20-22 days, the condition of the test plants as compared with that of the control plants was determined visually and scored on a scale of 0 to 100 percent where 0 corresponds to no injury and 100 corresponds to complete kill. […]

CYPIR = experiment: Example I postemergence foliar-applied, greenhouse, direct seeded rice weeds; assay type: in vivo, Cyperus iria L.
Text: Seeds or nutlets of the desired test plant species were planted in a soil matrix prepared by mixing a loam or sandy loam soil (e.g., 28.6 percent silt, 18.8 percent clay, and 52.6 percent sand, with a pH of about 5.8 and an organic matter content of about 1.8 percent) and calcareous grit in an 80 to 20 ratio. The soil matrix was contained in plastic pots with a volume of 1 quart and a surface area of 83.6 square centimeters (cm^2). When required to ensure good germination and healthy plants, a fungicide treatment and/or other chemical or physical treatment was applied. The plants were grown for 8-22 days in a greenhouse with an approximate 14 hr. photoperiod which was maintained at about 29° C. during the day and 26° C. during the night. Nutrients (Peters Excel® 15-5-15 5-Ca 2-Mg and iron chelate) were applied in the irrigation solution as needed and water was added on a regular basis. Supplemental lighting was provided with overhead metal halide 1000-Watt lamps as necessary. The plants were employed for testing when they reached the first through fourth true leaf stage.
Treatments consisted of the acid or esters of 4-amino-3-chloro-5-fluoro-6-(4-chloro-2-fluoro-3-methoxy-phenyl)pyridine-2-carboxylic acid (Compound A), each formulated as an SC (suspension concentrate), and various herbicidal components alone and in combination.
Other herbicidal components were applied on an acid equivalent (ae) or active ingredient (ai) basis and included acetyl coA carboxylase (ACCase)-inhibiting herbicides (cyclohexanedione and aryloxyphenoxypropionate chemical classes) cyhalofop-butyl formulated as Clincher® SF (285 gr ai/L EC), diclofop-methyl formulated as Hoelon® 3EC, fenoxaprop-p-ethyl+isoxadifen-ethyl formulated as RiceStar® HT (0.58 lb./gal EC), fenoxaprop-p-ethyl+mefenpyr diethyl formulated as Puma® IEC, metamifop formulated as Metamifop EC, haloxyfop-methyl formulated as Gallant Super®, fluazifop-p-butyl formulated as Fusilade® DX, quizalofop-p-ethyl formulated as Assure® II, profoxydim formulated as Aura® 20EC, clethodim applied as Intensity®, sethoxydim formulated as Poast®, and tralkoxydim formulated as Achieve®.
Treatment requirements were calculated based upon the rates being tested, the concentration of active ingredient or acid equivalent in the formulation, and a 12 mL application volume at a rate of 187 L/ha.
For treatments comprised of formulated compounds, measured amounts of compounds were placed individually in 25 mL glass vials and diluted in a volume of 1.25% (v/v) Agri-Dex® crop oil concentrated to obtain 12× stock solutions. […] Application solutions were prepared by adding an appropriate amount of each stock solution (e.g., 1 mL) and diluted to the appropriate final concentrations with the addition of 10 mL of an aqueous mixture of 1.25% (v/v) crop oil concentrate so that the final spray solutions contained 1.25+/−0.05% (v/v) crop oil concentrate.
All stock solutions and applications solutions were visually inspected for compound compatibility prior to application. Spray solutions were applied to the plant material with an overhead Mandel track sprayer equipped with a 8002E nozzles calibrated to deliver 187 L/ha over an application area of 0.503 m^2 at a spray height of 18 to 20 inches (46 to 50 cm) above average plant canopy height. Control plants were sprayed in the same manner with the solvent blank.
The treated plants and control plants were placed in a greenhouse as described above and watered by sub-irrigation to prevent wash-off of the test compounds. After approximately 3 weeks, the condition of the test plants as compared with that of the untreated plants was determined visually and scored on a scale of 0 to 100 percent where 0 corresponds to no injury or growth inhibition and 100 corresponds to complete kill. […]

PHAMI = experiment: Example IV postemergence foliar-applied, greenhouse, cereal crops weeds; assay type: in vivo, Phalaris minor Retz.
Procedure: as §1, §2, §3, §4, §5, §6, §7

ALOMY = experiment: as above; assay type: in vivo, Alopecurus myosuroides Huds.
Procedure: as §8, §2, §3, §9, §10

APESV = experiment: as above; assay type: in vivo, Apera spica-venti (L.) Beauv.
Procedure: as §1, §2, §3, §4, §5, §6, §7

Compound | Visual Weed Control (%) - 21 DAA KCHSC Obs (KCHSC; Tralkoxydim 50 gai/ha) | Visual Weed Control (%) - 21 DAA KCHSC Obs (KCHSC; Tralkoxydim 100 gai/ha) | Visual Weed Control (%) - 21 DAA LOLMU Obs (LOLMU; Tralkoxydim 50 gai/ha) | Visual Weed Control (%) - 21 DAA LOLMU Obs (LOLMU; Tralkoxydim 100 gai/ha) | Visual Weed Control (%) - 21 DAA AVEFA Obs (AVEFA; Tralkoxydim 50 gai/ha) | Visual Weed Control (%) - 21 DAA AVEFA Obs (AVEFA; Tralkoxydim 100 gai/ha) | Visual Weed Control (%) - 22 DAA CYPIR Obs (CYPIR; 100 gai/ha) | Visual Weed Control (%) - 22 DAA CYPIR Obs (CYPIR; 200 gai/ha) | Visual Weed Control (%) - 21 DAA KCHSC Obs (KCHSC; Clodinafop-propargyl 15 gai/ha) | Visual Weed Control (%) - 21 DAA KCHSC Obs (KCHSC; Clodinafop-propargyl 30 gai/ha) | Visual Weed Control (%) - 21 DAA PHAMI Obs (PHAMI; Clodinafop-propargyl 15 gai/ha) | Visual Weed Control (%) - 21 DAA PHAMI Obs (PHAMI; Clodinafop-propargyl 30 gai/ha) | Visual Weed Control (%) - 21 DAA LOLMU Obs (LOLMU; Clodinafop-propargyl 15 gai/ha) | Visual Weed Control (%) - 21 DAA LOLMU Obs (LOLMU; Clodinafop-propargyl 30 gai/ha) | Visual Weed Control (%) - 21 DAA ALOMY Obs (ALOMY; Clodinafop-propargyl 15 gai/ha) | Visual Weed Control (%) - 21 DAA ALOMY Obs (ALOMY; Clodinafop-propargyl 30 gai/ha) | Visual Weed Control (%) - 21 DAA APESV Obs (APESV; Clodinafop-propargyl 15 gai/ha) | Visual Weed Control (%) - 21 DAA APESV Obs (APESV; Clodinafop-propargyl 30 gai/ha)
CCO/N=C(/CC)C1=C(O)CC(c2c(C)cc(C)cc2C)CC1=O (stereo not drawn) [Tralkoxydim, 2-[1-(ethoxyimino)propyl]-3-hydroxy-5-(2,4,6-trimethylphenyl)-2-cyclohexen-1-one] | 10% | 0% | 86% | 96% | 78% | 99% | 0% | 0% |  |  |  |  |  |  |  |  |  | 
C#CCOC(=O)[C@@H](C)Oc1ccc(Oc2ncc(Cl)cc2F)cc1 [Clodinafop-propargyl, 2-propynyl(2R)-2-[4-[(5-chloro-3-fluoro-2-pyridinyl)oxy]phenoxy]propanoate] |  |  |  |  |  |  |  |  | 0% | 10% | 48% | 55% | 60% | 48% | 80% | 82% | 15% | 68%

From patent publication US9232796B2, “Herbicidal compositions comprising 4-amino-3-chloro-5-fluoro-6-(4-chloro-2-fluoro-3-methoxyphenyl) pyridine-2-carboxylic acid or a derivative thereof and acetyl-CoA carboxylase (ACCase) inhibitors” (DOW AGROSCIENCES LLC, priority 2012, dated 2016)
